This note sets out measurements from patent EP0678516B1, “Preparation of 2-bromo-5-(2-bromo-2-nitrovinyl)-furan and its use as microcide” (CENTRO DE BIOACTIVOS QUIMICOS DE LA UNIVERSIDAD CENTRAL DE …, priority 1994, dated 1995).

Structures are written as SMILES.

This assay has as its system Pseudomonas aeruginosa. In words: Experimental eye infection, erosion and instillation method. It is filed as in vivo, New Zealand Rabbits. To be noted: post inoculation evaluation. As to the method:
The effectiveness of two oil formulations was checked of 0.05% for the experimental treatment of eye infections by Pseudomonas aeruginosa in New Zealand Rabbits through the erosion and instillation method. The effectiveness of treatments was tested clinically and microbiologically, observing significant differences with the control group (not treated) (Table No. 2 and 2.1.).

Setting [1] is: group I, ointment at 0.05% for 8 days.
[2] abbreviates: group II, ointment at 0.05% for 4 days.
Where [3] appears, read: group III, eye drops at 0.05% for 4 days.

`O=[N+]([O-])C(Br)=Cc1ccc(Br)o1` [Product G-1, 2-bromo-5-(2-bromo-2-nitro-vinyl)-furan]: under setting [1], the “Bacteriolo-gical Exam” value is on record as 6 (+), the Edam is reported as 6/6, the Hyperemia is recorded as 6/6 and the Secretions is given as 6/6. Moreover, the Ulcer under setting [1] was 6/6. Besides, under setting [2], the “Bacteriolo-gical Exam” value is 6 (+), the Edam is listed as 6/6, the Hyperemia was 6/6 and the Secretions is on record as 6/6. Also, under setting [2], the Ulcer is given as 6/6. For the same compound, under setting [3], the “Bacteriolo-gical Exam” value was 6 (+), the Edam was 6/6, the Hyperemia is reported as 6/6 and the Secretions was 6/6. Moreover, the Ulcer under setting [3] was 6/6.
